Results published in US20140107109A1, “AMINO-DIHYDROTHIAZINE AND AMINO-DIOXIDO DIHYDROTHIAZINE COMPOUNDS AS BETA-SECRETASE ANTAGONISTS AND METHODS OF USE” (Amgen Inc., priority 2012, published 2014).
Read-outs that look alike come from different tables or passages of the source.

How the values were obtained:
[1] = tested on: Aβ40 in conditioned medium of cells stably expressing Amyloid Precursor Protein (APP); test: In vitro BACE cell-based assay (HEK cell assay), Aβ40 sandwich ELISA; conditions: Homo sapiens, HEK293
Method in brief: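 APP-stably expressing cells (40K/well, grown 24 h in DMEM/10% FBS) were treated 24 h with compounds in 10-point dose response starting at 100 μM or 10 μM, 0.1% DMSO final. Secreted Aβ40 was measured by sandwich ELISA (pAb40 capture, biotinylated 6E10 detection, europium time-resolved fluorescence); IC50 from percent inhibition.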

Cathepsin D (Cat D) = target: T1, Cathepsin D (Cat D) (Homo sapiens, UniProt P07339); test: In vitro enzymatic Cathepsin D (Cat D) FRET assay; assay type: biochemical; conditions: read-out: CatD IC50
T1 construct: Recombinant Cat D was expressed in CHO cells; made in house; host or cells: CHO cells
Method in brief: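 Recombinant Cat D expressed in CHO cells, used at 9 nM and pre-incubated one hour with serially diluted inhibitor in DMSO. Peptide substrate carries a fluorophore and quencher flanking the cleavage site; reaction stopped with Tris buffer raising pH to neutrality, then fluorescence read.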

[2] = target: Beta Secretase enzyme (BACE1) (Homo sapiens, UniProt P56817); test: In vitro enzymatic BACE FRET assay; assay type: biochemical; conditions: read-out: BACE1 FRET assay IC50
Method in brief: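 BACE1 cleavage of a 50 nM fluorophore/quencher peptide FRET substrate ran for one hour in 0.05 M acetate pH 4.2, 10% DMSO, 100 uM genapol. Tris buffer raised pH to neutrality to stop the reaction before fluorescence was read (excitation 488 nm, […]).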

T1 sequence (P07339 65-412, species assumed): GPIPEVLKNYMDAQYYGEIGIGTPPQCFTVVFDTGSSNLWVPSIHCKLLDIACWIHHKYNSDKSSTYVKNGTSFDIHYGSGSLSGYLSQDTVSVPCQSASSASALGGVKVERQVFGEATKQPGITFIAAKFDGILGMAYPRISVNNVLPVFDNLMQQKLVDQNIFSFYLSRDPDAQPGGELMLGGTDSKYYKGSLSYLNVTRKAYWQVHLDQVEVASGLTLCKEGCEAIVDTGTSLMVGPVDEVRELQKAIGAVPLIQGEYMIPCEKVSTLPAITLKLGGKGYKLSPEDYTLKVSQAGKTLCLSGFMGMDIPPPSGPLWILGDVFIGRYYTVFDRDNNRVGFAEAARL
Sequence of Beta Secretase enzyme (BACE1) (P56817 46-501): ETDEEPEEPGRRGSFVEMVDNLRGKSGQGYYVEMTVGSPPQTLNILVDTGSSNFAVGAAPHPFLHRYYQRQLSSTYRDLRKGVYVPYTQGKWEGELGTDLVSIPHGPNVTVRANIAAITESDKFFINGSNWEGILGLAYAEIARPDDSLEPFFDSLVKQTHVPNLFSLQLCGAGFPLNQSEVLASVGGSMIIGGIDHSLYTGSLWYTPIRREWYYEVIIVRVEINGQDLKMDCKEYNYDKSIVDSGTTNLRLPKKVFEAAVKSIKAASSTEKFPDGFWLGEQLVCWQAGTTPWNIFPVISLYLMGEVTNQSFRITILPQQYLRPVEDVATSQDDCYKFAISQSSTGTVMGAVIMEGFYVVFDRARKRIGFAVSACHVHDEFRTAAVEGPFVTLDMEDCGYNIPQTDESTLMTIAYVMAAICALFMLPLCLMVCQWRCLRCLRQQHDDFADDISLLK

IC50 (Cathepsin D (Cat D))	IC50 ([2]; average IC50, enzyme assay)	IC50 ([1]; average IC50, cell assay)	SMILES	also measured
401 µM	2.57 µM	–	Cc1c(C(F)(F)F)ccnc1Oc1ccc(F)c([C@]2(C)CS(=O)(=O)C(C)(C)C(N)=N2)c1 [Example 311, (5R)-5-(2-fluoro-5-((3-methyl-4-(trifluoromethyl)-2-pyridinyl)oxy)phenyl)-2,2,5-trimethyl-5,6-dihydro-2H-1,4-thiazin-3-amine 1,1-dioxide]	IC50 ([1]; average IC50, HEK cell assay): 2.39 µM
56.3 µM	–	–	CC1(C)C(N)=N[C@](C)(c2cc(Oc3cc(F)cc(C(F)(F)F)c3)ccc2F)CS1(=O)=O [Example 98, (R)-5-amino-3-(2-fluoro-5-(3-fluoro-5-(trifluoromethyl)phenoxy)phenyl)-3,6,6-trimethyl-3,6-dihydro-2H-1,4-thiazine 1,1-dioxide]	IC50 ([1]; Aβ40, 24 h incubation): 5.04 µM; IC50 [2]: 0.135 µM
358 µM	0.00154 µM	0.0052 µM	CC1(C)C(N)=N[C@](C)(c2cc(Nc3ncnc4cc(OCC5CC5)cnc34)ccc2F)CS1(=O)=O [Example 104, (R)-5-amino-3-(5-((7-(cyclopropylmethoxy)pyrido[3,2-d]pyrimidin-4-yl)amino)-2-fluorophenyl)-3,6,6-trimethyl-3,6-dihydro-2H-1,4-thiazine 1,1-dioxide]	–
134 µM	–	–	C[C@@]1(c2cc(Nc3nccc4cc(Cl)cnc34)ccc2F)CS(=O)(=O)CC(N)=N1 [Example 57, N-(3-((3R)-5-amino-3-methyl-1,1-dioxido-3,6-dihydro-2H-1,4-thiazin-3-yl)-4-fluorophenyl)-3-chloro-1,7-naphthyridin-8-amine]	IC50 ([1]; Aβ40, 24 h incubation): 0.019 µM; IC50 [2]: 0.0043 µM
1260 µM	0.00042 µM	–	C[C@]1(F)C(N)=N[C@](C)(c2cc(NC(=O)c3cnc(OCC(F)(F)F)cn3)ccc2F)CS1(=O)=O [Example 325, N-(3-((3R,6R)-5-amino-6-fluoro-3,6-dimethyl-1,1-dioxido-3,6-dihydro-2H-1,4-thiazin-3-yl)-4-fluorophenyl)-5-(2,2,2-trifluoroethoxy)-2-pyrazinecarboxamide]	IC50 ([1]; average IC50, HEK cell assay): 0.0445 µM
547 µM	0.106 µM	–	Cc1cc(C(F)(F)F)cc(Oc2ccc(F)c([C@]3(C)CS(=O)(=O)C(C)(C)C(N)=N3)c2)n1 [Example 298, (5R)-5-(2-fluoro-5-((6-methyl-4-(trifluoromethyl)-2-pyridinyl)oxy)phenyl)-2,2,5-trimethyl-5,6-dihydro-2H-1,4-thiazin-3-amine 1,1-dioxide]	IC50 ([1]; average IC50, HEK cell assay): 0.737 µM
1330 µM	0.0424 µM	–	COc1ccc(C(=O)Nc2ccc(F)c([C@]3(C)CS(=O)(=O)C(C)(C)C(N)=N3)c2)c(F)c1 [Example 354, N-(3-((3R)-5-amino-3,6,6-trimethyl-1,1-dioxido-3,6-dihydro-2H-1,4-thiazin-3-yl)-4-fluorophenyl)-2-fluoro-4-methoxybenzamide]	IC50 ([1]; average IC50, HEK cell assay): 0.0187 µM
23.8 µM	0.00082 µM	0.0054 µM	CC1(C)C(N)=N[C@](C)(c2cc(Nc3nccc4cc(Cl)cnc34)cnc2F)CS1(=O)=O [Example 223, N-(5-((3R)-5-amino-3,6,6-trimethyl-1,1-dioxido-3,6-dihydro-2H-1,4-thiazin-3-yl)-6-fluoro-3-pyridinyl)-3-chloro-1,7-naphthyridin-8-amine]	–
630 µM	–	–	Cc1cc(OCC(F)(F)F)cnc1C(=O)Nc1ccc(F)c([C@]2(CF)CS(=O)(=O)C3(CCC3)C(N)=N2)c1 [Example 374, N-(3-((7S)-9-amino-7-(fluoromethyl)-5,5-dioxido-5-thia-8-azaspiro[3.5]non-8-en-7-yl)-4-fluorophenyl)-3-methyl-5-(2,2,2-trifluoroethoxy)-2-pyridinecarboxamide]	IC50 [1]: 0.0616 µM; IC50 [2]: 0.0011 µM
31.1 µM	–	–	C[C@]1(c2cc(NC(=O)c3ccc(Cl)cn3)ccc2F)N=C(N)C2(CC2)S(=O)(=O)[C@H]1F [Example 201, N-(3-((5R,6R)-8-amino-5-fluoro-6-methyl-4,4-dioxido-4-thia-7-azaspiro[2.5]oct-7-en-6-yl)-4-fluorophenyl)-5-chloro-2-pyridinecarboxamide]	IC50 ([1]; average IC50, HEK cells): 0.002 µM; IC50 ([2]; average IC50): 0.00062 µM
> 1.65 µM	0.00223 µM	0.0643 µM	CC1(C)C(N)=N[C@](CF)(c2cc(Nc3ncc(F)c4cc(OCC(F)F)cnc34)ccc2F)CS1(=O)=O [Example 437, N-(3-((3S)-5-amino-3-(fluoromethyl)-6,6-dimethyl-1,1-dioxido-3,6-dihydro-2H-1,4-thiazin-3-yl)-4-fluorophenyl)-3-(2,2-difluoroethoxy)-5-fluoro-1,7-naphthyridin-8-amine]	–
1410 µM	0.0276 µM	1.03 µM	CC1(C)C(N)=N[C@](C)(c2cc(Oc3nccc4nc(C(F)(F)F)cnc34)ccc2F)CS1(=O)=O [Example 253, (5R)-5-(2-fluoro-5-((2-(trifluoromethyl)pyrido[3,4-b]pyrazin-5-yl)oxy)phenyl)-2,2,5-trimethyl-5,6-dihydro-2H-1,4-thiazin-3-amine 1,1-dioxide]	–
331 µM	1.21 µM	1.15 µM	CC1(C)C(N)=N[C@](C)(c2cc(Oc3ncc(C(F)(F)F)cc3F)ccc2F)CS1(=O)=O [Example 277, (5R)-5-(2-fluoro-5-((3-fluoro-5-(trifluoromethyl)-2-pyridinyl)oxy)phenyl)-2,2,5-trimethyl-5,6-dihydro-2H-1,4-thiazin-3-amine 1,1-dioxide]	–
58.3 µM	0.3 µM	0.574 µM	CC1(C)C(N)=N[C@](C)(c2cc(Oc3ccc4ccccc4n3)ccc2F)CS1(=O)=O [Example 261, (5R)-5-(2-fluoro-5-(2-quinolinyloxy)phenyl)-2,2,5-trimethyl-5,6-dihydro-2H-1,4-thiazin-3-amine 1,1-dioxide]	–
117 µM	–	–	CC1(C)C(N)=N[C@](CF)(c2cc(Nc3nccc4cc(C#N)cnc34)ccc2F)CS1(=O)=O [Example 387, 8-((3-((3S)-5-amino-3-(fluoromethyl)-6,6-dimethyl-1,1-dioxido-3,6-dihydro-2H-1,4-thiazin-3-yl)-4-fluorophenyl)amino)-1,7-naphthyridine-3-carbonitrile]	IC50 [1]: 0.0053 µM; IC50 [2]: 0.00044 µM
56.1 µM	–	–	Cc1cc(C(F)F)cnc1C(=O)Nc1ccc(F)c([C@@]2(C)N=C(N)C3(CC3)S(=O)(=O)[C@H]2F)c1 [Example 207, N-(3-((5R,6R)-8-amino-5-fluoro-6-methyl-4,4-dioxido-4-thia-7-azaspiro[2.5]oct-7-en-6-yl)-4-fluorophenyl)-5-(difluoromethyl)-3-methyl-2-pyridinecarboxamide]	IC50 ([1]; average IC50, HEK cells): 0.0067 µM; IC50 ([2]; average IC50): 0.00092 µM
305 µM	0.0225 µM	0.0289 µM	COc1ncc(NC(=O)c2ccc(Cl)cn2)cc1[C@]1(C)CS(=O)(=O)C(C)(C)C(N)=N1 [Example 170, (R)—N-(5-(5-amino-3,6,6-trimethyl-1,1-dioxido-3,6-dihydro-2H-1,4-thiazin-3-yl)-6-methoxypyridin-3-yl)-5-chloropicolinamide]	–
407 µM	0.00534 µM	0.0138 µM	CC1(C)C(N)=N[C@](C)(c2cc(Nc3nccc4nc(OCCF)cnc34)ccc2F)CS1(=O)=O [Example 441, N-(3-((3R)-5-amino-3,6,6-trimethyl-1,1-dioxido-3,6-dihydro-2H-1,4-thiazin-3-yl)-4-fluorophenyl)-2-(2-fluoroethoxy)pyrido[3,4-b]pyrazin-5-amine]	–
32.3 µM	0.0015 µM	0.341 µM	CC1(C)C(N)=N[C@](CF)(c2cc(Nc3ncc(F)c4cc(OCC5CCC5)cnc34)ccc2F)CS1(=O)=O [Example 434, N-(3-((3S)-5-amino-3-(fluoromethyl)-6,6-dimethyl-1,1-dioxido-3,6-dihydro-2H-1,4-thiazin-3-yl)-4-fluorophenyl)-3-(cyclobutylmethoxy)-5-fluoro-1,7-naphthyridin-8-amine]	–
199 µM	0.00304 µM	0.0209 µM	COc1cnc2c(Nc3ccc(F)c([C@]45COC[C@H]4S(=O)(=O)C(C)(C)C(N)=N5)c3)nccc2n1 [Example 248, N-(3-((4aS,7aS)-3-amino-2,2-dimethyl-1,1-dioxido-7,7a-dihydro-2H-furo[3,4-b][1,4]thiazin-4a(5H)-yl)-4-fluorophenyl)-2-methoxypyrido[3,4-b]pyrazin-5-amine]	–

SMILES	IC50 (Cathepsin D (Cat D))	IC50 ([2]; average IC50, enzyme assay)	IC50 ([1]; average IC50, cell assay)	also measured
COc1cnc2c(Nc3ccc(F)c([C@@]4(C(F)(F)F)CS(=O)(=O)C(C)(C)C(N)=N4)c3)nccc2c1 [Example 64, N-(3-((3R)-5-amino-6,6-dimethyl-1,1-dioxido-3-(trifluoromethyl)-3,6-dihydro-2H-1,4-thiazin-3-yl)-4-fluorophenyl)-3-methoxy-1,7-naphthyridin-8-amine]	> 400 µM	–	–	IC50 ([1]; Aβ40, 24 h incubation): > 10 µM; IC50 [2]: 8.69 µM
Cc1cnc(C(=O)Nc2ccc(F)c([C@]3(C)CS(=O)(=O)C(C)(C)C(N)=N3)c2)c(C)n1 [Example 111, ®-N-(3-(5-amino-3,6,6-trimethyl-1,1-dioxido-3,6-dihydro-2H-1,4-thiazin-3-yl)-4-fluorophenyl)-3,5-dimethylpyrazine-2-carboxamide]	> 400 µM	–	–	IC50 [1]: 0.0244 µM; IC50 [2]: 0.0182 µM
